The values below are quoted from earlier work in US10537528B2 (The Regents of the University of California, priority 2015, dated 2020).

In series [1] the test system is obese individuals with NASH. The settings on record: treated for 4-12 weeks.
For series [2], the system named is intracellular cystine (circulating white blood cells).
Series [3] relates to obese children who had steatosis. The settings on record: 400-1000 IU/day for 4-10 months.

For the compound `CC(=O)N[C@@H](CS)C(=O)O` [N-acetylcysteine], in series [1], the “aminotransferase levels and gamma-GT” value is “improvement”; the “subject body mass index” value is reported as “no reported change”.
Regarding `NCCS` [cysteamine], in series [2] (delivery into the small intestine (WO 2007/089670)), the “time to observed decrease in leukocyte cystine” value is “within an hour”. Besides, the “depletion of intracellular cystine” value in series [2] (taken regularly, measured in circulating white blood cells) is on record as “up to 90%”.
For the compound vitamin E, the “mean AST levels after treatment” value in series [3] (decreased from 104±61 IU/L, P<0.002) was 33±11 IU/L. In addition, the “mean ALT levels after treatment” value in series [3] (decreased from 175±106 IU/L, P<0.01) is 40±26 IU/L.
